These results are taken from patent US5559113A, “Imidazole compounds and their therapeutic applications” (Institut National de la Sante et de la Recherche Medicale, priority 1992, dated 1996).

SMILES strings stand for the structures.

In one experiment the target is T1, H3 receptors of the brain of the rat (Rattus norvegicus, UniProt Q9QYN8).
T1 construct: This method requires rat cerebral cortex sections; from tissue; host or cells: rat cerebral cortex sections
T1 sequence (Q9QYN8 whole entry): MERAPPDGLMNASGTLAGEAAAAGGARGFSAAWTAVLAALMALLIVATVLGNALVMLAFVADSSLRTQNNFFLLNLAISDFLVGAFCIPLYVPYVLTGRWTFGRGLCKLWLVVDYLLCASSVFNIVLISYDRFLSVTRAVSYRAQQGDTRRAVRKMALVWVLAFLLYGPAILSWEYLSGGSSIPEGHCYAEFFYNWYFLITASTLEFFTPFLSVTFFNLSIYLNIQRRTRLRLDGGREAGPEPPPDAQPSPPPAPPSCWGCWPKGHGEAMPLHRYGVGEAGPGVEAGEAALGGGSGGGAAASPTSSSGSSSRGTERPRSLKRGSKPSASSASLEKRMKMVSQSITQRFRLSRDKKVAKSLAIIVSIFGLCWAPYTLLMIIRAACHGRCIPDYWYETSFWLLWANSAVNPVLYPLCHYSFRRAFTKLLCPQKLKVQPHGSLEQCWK
In words: Antagonism of the inhibition by exogenous histamine of release in rat cerebral cortex sections (central H3 receptors). In kind it is cell-based.
Settings: not given
An excerpt:
This method requires rat cerebral cortex sections and has made possible the pharmacological characterization of the H3 receptors (Nature, 1987, 327, 117-123).
In turn, `O=C(CCc1ccccc1)NCCCc1c[nH]cn1` [Example 2, N-(3-(1H-Imidazol-4-yl)propyl)-3-phenylpropanamide] displayed a Ki of 49 nM.

In the case of `O=[N+]([O-])c1ccc(NCCc2c[nH]cn2)nc1` [Example 94, 2-{[2-(1H-Imidazol-4-yl)ethyl]amino}-5-nitropyridine], the Ki was found to be 38 nM. In turn, `Fc1ccc(CCCOCCCc2c[nH]cn2)cc1` [Example 88, 3-(4-Fluorophenyl)propyl 3-(1H-imidazol-4-yl)propyl ether] returned a Ki of 7 ± 2 nM. Same read-out and setting: the same measure for `O=C(CCCc1ccccc1)CCCc1c[nH]cn1` [Example 49, 1-(1H-Imidazol-4-yl)-7-phenylheptan-4-one]: 20 nM; for `c1ccc2sc(NCCc3c[nH]cn3)nc2c1` [Example 91, 2-{[2-(1H-Imidazol-4-yl)ethyl]amino}benzothiazole]: 380 nM. Same read-out and setting: in the case of `O=C(CCC1CCCC1)OCCCc1c[nH]cn1` [Example 24, 3-(1H-Imidazol-4-yl)propyl ester of 3-cyclopentylpropanoic acid] it was 3 nM. On the same count and under the same terms, in the case of `N#CN=C(NCCCc1cnc[nH]1)NCC1CCCCC1` [Example 51, N-Cyano-N'-[3-(1H-imidazol-4-yl)propyl]-N"-cyclohexylmethylguanidine] it was 20 nM; in that of `Clc1ccc(CCCOCCCc2c[nH]cn2)cc1` [Example 85, 3-(4-Chlorophenyl)propyl 3-(1H-imidazol-4-yl)propyl ether], 13 ± 4 nM; in that of `O=C(CCC1CCCC1)NC/C=C/c1c[nH]cn1` [Example 19, (E)-N-(3-(1H-Imidazol-4-yl)allyl)-3-cyclopentylpropanamide], 42 nM. In turn, `Clc1ccc(COCCCc2c[nH]cn2)cc1` [Example 86, (4-Chlorophenyl)methyl 3-(1H-imidazol-4-yl)propyl ether] registered a Ki of 18 nM. Turning to `Brc1ccc(CCCOCCCc2c[nH]cn2)cc1` [Example 38, 3-(4-Bromophenyl)propyl 3-(1H-imidazol-4-yl)propyl ether], the Ki stood at 15 ± 4 nM. The same measure, in the same setting: the same measure for `O=C(CCCC1CCCCC1)NCCCc1c[nH]cn1` [Example 7, N-(3-(1H-Imidazol-4-yl)propyl)-4-cyclohexylbutanamide]: 59 nM; for `CC(CC(=O)NCCCc1c[nH]cn1)c1ccccc1` (racemic) [Example 15, (R,S)-(+)-N-(3-(1H-Imidazol-4-yl)propyl)-3-phenylbutanamide]: 35 nM; for `c1ccc(CCCOCCCc2c[nH]cn2)cc1` [Example 45, 3-Phenylpropyl 3-(1H-imidazol-4-yl)propyl ether]: 17 ± 3 nM. Still for that read-out and setting: the same measure for `S=C(CCC1CCCC1)NCCCc1c[nH]cn1` [Example 22, N-(3-(1H-Imidazol-4-yl)propyl)-3-cyclopentylpropanethioamide]: 11 nM.

The experiment is the same for the next values; noted with them: read-out: Apparent dissociation constant (Ki) as antagonist of histamine on the H3 receptors of the brain of the rat; rat cerebral cortex sections; exogenous histamine 1 μM; Ki calculated from IC50 according to Cheng and Prusoff.
Take `N#Cc1ccc(OCCc2c[nH]cn2)cc1` [Example 112, 4-[2-(4-Cyanophenoxy)ethyl]-1H-imidazole]: the Ki is 9 ± 5 nM. Still for that read-out and setting: in the case of `O=C(Nc1ccccc1)OCCCc1c[nH]cn1` [Example 61, 3-(1H-Imidazol-4-yl)propyl N-phenylcarbamate] it was 14 ± 8 nM. On the same count and under the same terms, the same measure for `CN(Cc1ccccc1)C(=O)OCCCc1c[nH]cn1` [Example 83, 3-(1H-Imidazol-4-yl)propyl N-benzyl-N-methylcarbamate]: 42 nM; for `c1ccc2cc(OCCc3c[nH]cn3)ccc2c1` [Example 125, 4-[2-(2-Naphthyloxy)ethyl]-1H-imidazole]: 90 ± 27 nM.

As to `CCCc1ccc(OCCc2c[nH]cn2)cc1` [Example 117, 4-[2-(4-Propylphenoxy)ethyl]-1H-imidazole], the Ki was 19 ± 9 nM. `O=C(NCC1CC1)OCCCc1c[nH]cn1` [Example 57, 3-(1H-Imidazol-4-yl)propyl N-(cyclopropylmethyl)carbamate]: the Ki is 52 nM. Take `N#Cc1ccc(OCCCc2c[nH]cn2)cc1` [Example 130, 4-[3-(4-Cyanophenoxy)propyl]-1H-imidazole]: the Ki is 12 ± 3 nM. The same measure, in the same setting: in the case of `O=[N+]([O-])c1ccc(SCCc2c[nH]cn2)nc1` [Example 107, 2-{2-[1H-Imidazol-4-yl]ethylthio}-5-nitropyridine] it was 4.8 ± 0.9 nM. Same read-out and setting: the same measure for `FC(F)(F)c1ccc(OCCCc2c[nH]cn2)cc1` [Example 131, 4-[3-(4-Trifluoromethylphenoxy)propyl]-1H-imidazole]: 14 ± 6 nM; for `O=C(NCc1ccc([N+](=O)[O-])cc1)OCCCc1c[nH]cn1` [Example 67, 3-(1H-Imidazol-4-yl)propyl N-(4-nitrobenzyl)carbamate]: 15 nM; for `c1nc(CCCOCCCC2CCCCC2)c[nH]1` [Example 36, 3-Cyclohexylpropyl 3-(1H-imidazol-4-yl)propyl ether]: 20 ± 8 nM. Consider `O=C(Nc1ccc(F)cc1)OCCCc1c[nH]cn1` [Example 73, 3-(1H-Imidazol-4-yl)propyl N-(4-fluorophenyl)carbamate], for which the Ki is 24 ± 4 nM. Take `O=[N+]([O-])c1ccc(OCCc2c[nH]cn2)cc1` [Example 110, 4-[2-(4-Nitrophenoxy)ethyl]-1H-imidazole]: the Ki was 35 ± 6 nM. Turning to `O=C(NC(=O)c1ccccc1)OCCCc1c[nH]cn1` [Example 55, 3-(1H-Imidazol-4-yl)propyl N-benzoylcarbamate], the Ki was 95 nM.

The experiment is the same for the next values; noted with them: read-out: Inhibition of release by exogenous histamine.
A word on the inhibition: it is the share of the control response that was lost under treatment. `NCCc1c[nH]cn1` [histamine, reference compound]: the inhibition at 1 µM was approximately 50%.
